The test concerns the target T1, cynomolgus BK1-receptor (Macaca fascicularis, UniProt Q3BCU0).
T1 construct: expressed in transfected cells; host or cells: CHO cells (homogenate)
T1 sequence (Q3BCU0 1-352): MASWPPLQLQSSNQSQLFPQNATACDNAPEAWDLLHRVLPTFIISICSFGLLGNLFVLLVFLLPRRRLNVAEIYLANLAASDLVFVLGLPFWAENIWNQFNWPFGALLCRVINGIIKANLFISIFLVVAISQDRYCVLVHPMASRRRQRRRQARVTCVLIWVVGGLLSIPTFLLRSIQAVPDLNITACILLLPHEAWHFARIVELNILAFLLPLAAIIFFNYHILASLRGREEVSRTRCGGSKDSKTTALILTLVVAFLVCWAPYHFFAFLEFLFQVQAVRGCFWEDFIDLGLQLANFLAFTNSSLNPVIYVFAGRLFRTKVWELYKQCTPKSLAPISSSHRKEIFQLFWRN
The experiment in a line: cynoBK1-receptor binding assay. The settings on record: CHO cells expressing cynomolgus BK1-receptor, radioligand kallidine (DesArg10,Leu9). The protocol:
Description of the Method of Binding the cynoBK1-Receptor
CHO cells that express the cynomolgus BK1-receptor are cultivated in “HAM'S F-12 Medium”. The medium is removed from confluent cultures, the cells are washed with PBS buffer, scraped off or detached using Versene and isolated by centrifuging. Then the cells are homogenised in suspension, the homogenate is centrifuged and resuspended. After the protein content has been determined 200 μl of the homogenate (50 to 250 μg protein/assay) are incubated for 60-180 minutes at ambient temperature with 0.5 to 5.0 nM kallidine (DesArg10,Leu9), [3,4-Prolyl-3,43H(N)] and increasing concentrations of the test substance in a total volume of 250 μl. The incubation is stopped by rapid filtration through GF/B glass fibre filters that have been pre-treated with polyethyleneimine (0.3%). The radioactivity bound to the protein is measured with a TopCount NXT. The radioactivity bound in the presence of 1.0 μM kallidine (DesArg10) is defined as non-specific binding. The concentration binding curve may be analysed using computer-aided non-linear curve fitting to determine the corresponding Ki value for the test substance.
Test results of the cynoBK1-receptor binding assay: […]

The text below walks through data of patent US20130131075A1, “NEW COMPOUNDS” (Boehringer Ingelheim International GmbH, priority 2009, published 2013).

pKi: −log10 of the molar value.

For the compound `O=C(N[C@@]1(C(=O)NCc2ccc(Nc3ccccc3C(F)(F)F)cc2)CCOC1)c1ccc(F)nc1` [(107)], the inhibition at 10 µM (at 10 μgmol/L) turned out to be 95%.
Compound `CCNC(=O)NC1(C(=O)NCc2ccc(Nc3ccccc3C(F)(F)F)cc2)CC1` [(108)] had a pKi of 6.87. In addition, the inhibition at 10 µM (at 10 μgmol/L) came out at 101%.
Consider `CN(c1ccccc1)c1ccc(CNC(=O)C2(NC(=O)c3cncnc3)CC2)cc1` [(109)], for which the inhibition at 10 µM (at 10 μgmol/L) was determined as 27%.
The same measure, in the same setting: as for `CN(c1ccc(CNC(=O)C2(NC(=O)c3cncnc3)CC2)cc1)c1ccccc1Cl` [(110)], the figure is 33%.
As for `CCN(c1ccccc1)c1ccc(CNC(=O)C2(NC(=O)c3cncnc3)CC2)cc1` [(111)], the inhibition at 10 µM (at 10 μgmol/L) is 20%.
`COc1ccc(N(C)c2ccc(CNC(=O)C3(NC(=O)c4cncnc4)CC3)cc2)cc1` [(112)]: the inhibition at 10 µM (at 10 μgmol/L) was 45%.
On to `Cc1ccccc1N(C)c1ccc(CNC(=O)C2(NC(=O)c3cncnc3)CC2)cc1` [(113)], for which, under “at 10 μgmol/L”, the inhibition at 10 µM worked out at 7%.
`N#Cc1ccc(F)cc1Nc1ccc(CNC(=O)C2(NC(=O)c3cncnc3)CC2)cc1` [(114)]: the negative-log Ki (pKi) was less than 6.30. The inhibition at 10 µM (at 10 μgmol/L) was found to be 77%.
For `N#Cc1c(F)cccc1Nc1ccc(CNC(=O)C2(NC(=O)c3cncnc3)CC2)cc1` [(115)], in that order: less than 6.30 and 99%.
For `N#Cc1cccc(F)c1Nc1ccc(CNC(=O)C2(NC(=O)c3cncnc3)CC2)cc1` [(116)], in that order: less than 6.30 and 83%.
`CCOc1ccc(Nc2ccc(CNC(=O)C3(NC(=O)c4cncnc4)CC3)cc2)c(C(F)(F)F)c1` [(117)]: the pKi is 8.55. For the same compound, the inhibition at 10 µM (at 10 μgmol/L) is 111%.
For the compound `O=C(NC1(C(=O)NCc2ccc(Nc3ccc(OCC(F)F)cc3C(F)(F)F)cc2)CC1)c1cncnc1` [(118)], the negative-log Ki (pKi) is 7.19. For the same compound, the inhibition at 10 µM (at 10 μgmol/L) is 109%.
For `CC(C)Oc1ccc(Nc2ccc(CNC(=O)C3(NC(=O)c4cncnc4)CC3)cc2)c(C(F)(F)F)c1` [(119)], in that order: 6.43 and 82%.
In turn, `O=C(NC1(C(=O)NCc2ncc(Nc3c(F)cccc3C(F)(F)F)cc2F)CC1)c1cncnc1` [(120)] showed a pKi of 8.62. Further, the inhibition at 10 µM (at 10 μgmol/L) came out at 113%.
For `CC(NC(=O)C1(NC(=O)c2cncnc2)CC1)c1ncc(Nc2c(F)cccc2C(F)(F)F)cc1F` (centres unmarked) [(121)], in that order: 8.70 and 113%.
For `CC(NC(=O)C1(NC(=O)c2cncc(N)c2)CC1)c1ncc(Nc2c(F)cccc2C(F)(F)F)cc1F` (centres unmarked) [(122)], in that order: 8.20 and 113%.
The compound `CC(NC(=O)C1(NC(=O)c2cncnc2)CC1)c1ccc(Nc2c(F)cccc2C(F)(F)F)cn1` (centres unmarked) [(123)] had a pKi of 8.08. For the same compound, the inhibition at 10 µM (at 10 μgmol/L) amounted to 110%.
For `CC(NC(=O)C1(NC(=O)c2cncc(N)c2)CC1)c1ccc(Nc2c(F)cccc2C(F)(F)F)cn1` (centres unmarked) [(124)] the same measures were 7.48 and 112%.
For `Nc1cncc(C(=O)NC2(C(=O)NCc3ncc(Nc4c(F)cccc4C(F)(F)F)cc3F)CC2)c1` [(125)] the same measures were 7.92 and 108%.
As for `O=C(NC1(C(=O)NCc2ccc(Nc3ccc(Br)cc3Cl)cn2)CC1)c1cncnc1` [(126)], the negative-log Ki (pKi) was 7.34. Moreover, where the note is “at 10 μgmol/L”, the inhibition at 10 µM was 103%.
`O=C(N[C@@]1(C(=O)NCc2ccc(Nc3ccccc3C(F)(F)F)cc2)CCOC1)c1cncnc1` [(127)]: for the setting “at 10 μgmol/L”, the inhibition at 10 µM was found to be 108%.
In the case of `O=C(NC1(C(=O)NCc2ncc(Nc3c(F)cccc3C(F)(F)F)cc2F)CC1)c1ccnnc1` [(128)], the pKi is 7.08. Also, where the note is “at 10 μgmol/L”, the inhibition at 10 µM stood at 103%.
The compound `COc1ncc(C(=O)NC2(C(=O)NCc3ncc(Nc4c(F)cccc4C(F)(F)F)cc3F)CC2)cn1` [(129)] gave a pKi of 7.96. Besides, the inhibition at 10 µM (at 10 μgmol/L) worked out at 107%.
Compound `O=C(NC1(C(=O)NCc2ncc(Nc3c(F)cccc3C(F)(F)F)cc2F)CC1)c1ccnc(O)c1` [(130)] showed a negative logarithm of the Ki (pKi) of 7.00. The inhibition at 10 µM (at 10 μgmol/L) came to 101%.
As for `Cc1cncc(C(=O)NC2(C(=O)NCc3ncc(Nc4c(F)cccc4C(F)(F)F)cc3F)CC2)c1` [(131)], the pKi is 7.48. Besides, the inhibition at 10 µM (at 10 μgmol/L) amounted to 105%.
For `Cn1ccc(C(=O)NC2(C(=O)NCc3ncc(Nc4c(F)cccc4C(F)(F)F)cc3F)CC2)cc1=O` [(132)], in that order: 6.74 and 98%.
On to `CNc1ncc(C(=O)NC2(C(=O)NCc3ncc(Nc4c(F)cccc4C(F)(F)F)cc3F)CC2)cn1` [(133)], for which the inhibition at 10 µM (at 10 μgmol/L) was 101%.
Turning to `Cc1ncc(C(=O)NC2(C(=O)NCc3ncc(Nc4c(F)cccc4C(F)(F)F)cc3F)CC2)cn1` [(134)], the negative logarithm of the Ki (pKi) is 8.33. Also, under “at 10 μgmol/L”, the inhibition at 10 µM worked out at 101%.
`O=C(NC1(C(=O)NCc2ncc(Nc3c(F)cccc3C(F)(F)F)cc2F)CC1)c1cncs1` [(135)] had a pKi of 7.82. Further, where the note is “at 10 μgmol/L”, the inhibition at 10 µM was determined as 106%.
For `O=C(NC1(C(=O)NCc2ncc(Nc3c(F)cccc3C(F)(F)F)cc2F)CC1)c1cccc(O)n1` [(136)], in that order: 7.38 and 104%.
`COc1ncc(C(=O)NC2(C(=O)NCc3ccc(Nc4ccc(Br)cc4C(F)(F)F)cn3)CC2)cn1` [(138)]: the negative logarithm of the Ki (pKi) is 8.17. In addition, the inhibition at 10 µM (at 10 μgmol/L) worked out at 107%.
For `Cc1ncc(C(=O)NC2(C(=O)NCc3ccc(Nc4ccc(Br)cc4C(F)(F)F)cn3)CC2)cn1` [(139)] the same measures were 8.55 and 107%.
For `O=C(NC1(C(=O)NCc2ccc(Nc3ccc(Br)cc3C(F)(F)F)cn2)CC1)c1cccc(O)n1` [(140)], the negative-log Ki (pKi) was 7.85. Also, for the setting “at 10 μgmol/L”, the inhibition at 10 µM was determined as 106%.
For `O=C(NC1(C(=O)NCc2ccc(Nc3ccc(Br)cc3C(F)(F)F)cn2)CC1)c1cncc(O)c1` [(141)], in that order: 8.12 and 100%.
For `Nc1cncc(C(=O)NC2(C(=O)NCc3ccc(Nc4ccc(F)cc4C(F)(F)F)cn3)CC2)c1` [(142)], in that order: 7.92 and 106%.
For `O=C(NC1(C(=O)NCc2ccc(Nc3ccc(F)cc3C(F)(F)F)cn2)CC1)c1cnc2[nH]cnc2c1` [(143)] the same measures were 7.92 and 106%.
For the compound `Nc1cncc(C(=O)NC2(C(=O)NCc3ccc(Nc4ccc(F)cc4C(F)(F)F)cn3)CC2)n1` [(144)], the negative logarithm of the Ki (pKi) was 6.90. Also, the inhibition at 10 µM (at 10 μgmol/L) was 97%.
Regarding `CNc1ncc(C(=O)NC2(C(=O)NCc3ccc(Nc4ccc(Cl)cc4C(F)(F)F)cn3)CC2)cn1` [(145)], the negative logarithm of the Ki (pKi) is 8.55. Further, the inhibition at 10 µM (at 10 μgmol/L) worked out at 99%.
For `COc1ncc(C(=O)NC2(C(=O)NCc3ccc(Nc4ccc(Cl)cc4C(F)(F)F)cn3)CC2)cn1` [(146)], in that order: 8.12 and 107%.
For `Cc1ncc(C(=O)NC2(C(=O)NCc3ccc(Nc4ccc(Cl)cc4C(F)(F)F)cn3)CC2)cn1` [(147)] the same measures were 8.36 and 107%.
On to `Cn1ccc(C(=O)NC2(C(=O)NCc3ccc(Nc4ccc(Cl)cc4C(F)(F)F)cn3)CC2)cc1=O` [(148)], for which the inhibition at 10 µM (at 10 μgmol/L) was found to be 96%.
Same read-out and setting: as for `O=C(NC1(C(=O)NCc2ccc(Nc3ccc(Cl)cc3C(F)(F)F)cn2)CC1)c1cncs1` [(149)], the figure is 100%.
Take `Nc1cc(C(=O)NC2(C(=O)NCc3ccc(Nc4ccc(F)cc4C(F)(F)F)cn3)CC2)on1` [(150)]: the pKi is 7.43. For the same compound, for the setting “at 10 μgmol/L”, the inhibition at 10 µM turned out to be 105%.
For `O=C(NC1(C(=O)NCc2ncc(Nc3ccc(F)cc3C(F)(F)F)cc2F)CC1)c1cncnc1` [(151)] the same measures were 8.74 and 107%.
For `Nc1cncc(C(=O)NC2(C(=O)NCc3ncc(Nc4ccc(F)cc4C(F)(F)F)cc3F)CC2)c1` [(152)], in that order: 8.49 and 105%.
As to `O=C(N[C@@]1(C(=O)NCc2ncc(Nc3ccc(F)cc3C(F)(F)F)cc2F)CCOC1)c1cncnc1` [(153)], the pKi is 8.01. Also, the inhibition at 10 µM (at 10 μgmol/L) was found to be 106%.
For `Nc1cncc(C(=O)N[C@@]2(C(=O)NCc3ncc(Nc4c(F)cccc4C(F)(F)F)cc3F)CCOC2)c1` [(154)] the same measures were 7.05 and 101%.
Consider `O=C(N[C@@]1(C(=O)NCc2ccc(Nc3ccccc3C(F)(F)F)cc2)CCOC1)c1cncnc1` [(155)], for which the “% inhibition at 10 μgmol/L” value (at 10 μgmol/L) turned out to be 101%.
In the case of `Nc1cncc(C(=O)N[C@@]2(C(=O)NCc3ncc(Nc4ccc(F)cc4C(F)(F)F)cc3F)CCOC2)c1` [(156)], the negative-log Ki (pKi) was 8.07. Further, the inhibition at 10 µM (at 10 μgmol/L) stood at 107%.
For `Nc1cncc(C(=O)N[C@@]2(C(=O)NCc3ccc(Nc4ccc(F)cc4C(F)(F)F)cn3)CCOC2)c1` [(157)], in that order: 7.25 and 96%.
